Where two headings read alike, the source gives them in different places.
Tests used:
Assay in all cases: Post-emergence efficacy, Method A
Type in all cases: in vivo
Setaria faberi (SETFA) = details: Setaria faberi, post-emergence, 312 h; Application rate 500 g/Ha; evaluated after 13 days; 100=total damage to plant, 0=no damage to plant; read-out: Control of weed species after post-emergence application, SETFA
Protocol: (§1) Seeds of a variety of test species were sown in standard soil in pots. After cultivation for 14 days (post-emergence) under controlled conditions in a glasshouse (at 24/16° C., day/night; 14 hours light; 65% humidity), the plants were sprayed with an aqueous spray solution derived from the dissolution of the technical active ingredient formula (I) in a small amount of acetone and a special solvent and emulsifier mixture referred to as IF50 (11.12% Emulsogen EL360 TM+44.44% N-methylpyrrolidone+44.44% Dowanol DPM glycol ether), to create a 50 g/I solution which was then diluted to required concentration using 0.25% or 1% Empicol ESC70 (Sodium lauryl ether sulphate)+1% ammonium sulphate as diluent. The test plants were then grown in a glasshouse under controlled conditions (at 24/16° C., day/night; 14 hours light; 65% humidity) and watered twice daily. After 13 days the test was evaluated (100=total damage to plant; 0=no damage to plant).
(§2) Ipomoea hederacea (IPOHE), Euphorbia heterophylla (EPHHL), Chenopodium album (CHEAL), Amaranthus palmeri (AMAPA), Lolium perenne (LOLPE), Digitaria sanguinalis (DIGSA), Eleusine indica (ELEIN), Echinochloa crus-galli (ECHCG), Setaria faberi (SETFA)

[1] = system: Ipomoea hederacea (IPOHE); details: Ipomoea hederacea, post-emergence, 312 h, evaluated after 13 days
Protocol: as §1, §2

[2] = system: Echinochloa crus-galli (ECHCG); details: Echinochloa crus-galli, post-emergence, 312 h, evaluated after 13 days
Protocol: as §1, §2

Eleusine indica (ELEIN) = details: Eleusine indica, post-emergence, 312 h, evaluated after 13 days
Protocol: as §1, §2

[3] = system: Euphorbia heterophylla (EPHHL); details: Euphorbia heterophylla, post-emergence, 312 h, evaluated after 13 days
Protocol: as §1, §2

[4] = system: Chenopodium album (CHEAL); details: Chenopodium album, post-emergence, 312 h, evaluated after 13 days
Protocol: as §1, §2

Lolium perenne (LOLPE) = details: Lolium perenne, post-emergence, 312 h, evaluated after 13 days
Protocol: as §1, §2

[5] = system: Digitaria sanguinalis (DIGSA); details: Digitaria sanguinalis, post-emergence, 312 h, evaluated after 13 days
Protocol: as §1, §2

[6] = system: Amaranthus palmeri (AMAPA); details: Amaranthus palmeri, post-emergence, 312 h; Application Rate 500 g/Ha; evaluated after 13 days; Method A; read-out: Control of weed species after post-emergence application, AMAPA (100=total damage to plant; 0=no damage to plant)
Protocol: as §1, §2

[7] = Application rate 500 g/Ha, 100=total damage to plant, 0=no damage to plant, read-out: Control of weed species after post-emergence application, IPOHE
[8] = Application rate 500 g/Ha, 100=total damage to plant, 0=no damage to plant, read-out: Control of weed species after post-emergence application, ECHCG
[9] = Application rate 500 g/Ha, 100=total damage to plant, 0=no damage to plant, read-out: Control of weed species after post-emergence application, ELEIN
[10] = Application rate 500 g/Ha, 100=total damage to plant, 0=no damage to plant, read-out: Control of weed species after post-emergence application, EPHHL
[11] = Application rate 500 g/Ha, 100=total damage to plant, 0=no damage to plant, read-out: Control of weed species after post-emergence application, CHEAL
[12] = Application rate 500 g/Ha, 100=total damage to plant, 0=no damage to plant, read-out: Control of weed species after post-emergence application, LOLPE
[13] = Application rate 500 g/Ha, 100=total damage to plant, 0=no damage to plant, read-out: Control of weed species after post-emergence application, DIGSA

Row | SMILES | pest or weed control at 500 g/ha (Setaria faberi (SETFA)) [%] | pest or weed control at 500 g/ha [1, 7] [%] | pest or weed control at 500 g/ha [2, 8] [%] | pest or weed control at 500 g/ha (Eleusine indica (ELEIN); [9]) [%] | pest or weed control at 500 g/ha [3, 10] [%] | pest or weed control at 500 g/ha [4, 11] [%] | pest or weed control at 500 g/ha (Lolium perenne (LOLPE); [12]) [%] | pest or weed control at 500 g/ha [5, 13] [%] | pest or weed control at 500 g/ha [6] [%] | pest or weed control at 500 g/ha ([1]; Application Rate 500 g/Ha, Method A, read-out: Control of weed species after post-emergence application, IPOHE (100=total damage to plant; 0=no damage to plant)) [%] | pest or weed control at 500 g/ha ([2]; Application Rate 500 g/Ha, Method A, read-out: Control of weed species after post-emergence application, ECHCG (100=total damage to plant; 0=no damage to plant)) [%] | pest or weed control at 500 g/ha (Eleusine indica (ELEIN); Application Rate 500 g/Ha, Method A, read-out: Control of weed species after post-emergence application, ELEIN (100=total damage to plant; 0=no damage to plant)) [%] | pest or weed control at 500 g/ha ([3]; Application Rate 500 g/Ha, Method A, read-out: Control of weed species after post-emergence application, EPHHL (100=total damage to plant; 0=no damage to plant)) [%] | pest or weed control at 500 g/ha ([4]; Application Rate 500 g/Ha, Method A, read-out: Control of weed species after post-emergence application, CHEAL (100=total damage to plant; 0=no damage to plant)) [%] | pest or weed control at 500 g/ha (Lolium perenne (LOLPE); Application Rate 500 g/Ha, Method A, read-out: Control of weed species after post-emergence application, LOLPE (100=total damage to plant; 0=no damage to plant)) [%] | pest or weed control at 500 g/ha ([5]; Application Rate 500 g/Ha, Method A, read-out: Control of weed species after post-emergence application, DIGSA (100=total damage to plant; 0=no damage to plant)) [%]
1 | CS(=O)(=O)c1cnc(-c2cc[n+](CCS(=O)(=O)[O-])nc2)nc1 [Compound A15] | 50 | 10 | 40 | 80 | 20 | 90 | 10 | 60 |  |  |  |  |  |  |  | 
2 | Cc1nccc(-c2cc[n+](CCC(=O)O)nc2)n1 [Compound A55] | 100 | 70 | 90 | 100 | 70 | 80 | 60 | 100 |  |  |  |  |  |  |  | 
3 | O=C([O-])CC[n+]1ccc(-c2ncc(Cl)cn2)cn1 [Compound A43] | 100 | 30 | 70 | 100 | 80 | 90 | 20 | 90 |  |  |  |  |  |  |  | 
4 | Cc1cnc(-c2cc[n+](CCS(=O)(=O)[O-])nc2)cn1 [Compound A61] | 100 | 50 | 90 | 100 | 90 | 80 | 70 | 100 |  |  |  |  |  |  |  | 
5 | CN(C)c1cnc(-c2cc[n+](CCS(=O)(=O)[O-])nc2)nc1 [Compound A18] | 40 | 10 | 30 | 60 | 10 | 0 | 10 | 50 |  |  |  |  |  |  |  | 
6 | Nc1cc(-c2cc[n+](CCC(=O)O)nc2)ncn1 [Compound A163] |  |  |  |  |  |  |  |  | 100 | 30 | 40 | 90 | 50 | 60 | 70 | 50
7 | Cc1cc(C)nc(-c2cc[n+](CCS(=O)(=O)[O-])nc2)n1 [Compound A48] | 100 | 20 | 70 | 100 | 90 | 100 | 70 | 90 |  |  |  |  |  |  |  | 
8 | COc1cc(OC)nc(-c2cc[n+](CCS(=O)(=O)[O-])nc2)n1 [Compound A32] | 80 | 40 | 70 | 100 | 70 | 70 | 30 | 90 |  |  |  |  |  |  |  | 
9 | O=S(=O)([O-])CCC[n+]1ccc(-c2ccc(O)nn2)cn1 [Compound A52] | 70 | 20 | 60 | 70 | 60 | 60 | 10 | 70 |  |  |  |  |  |  |  | 
10 | CN(C)c1ccnc(-c2cc[n+](CCC(=O)[O-])nc2)n1 [Compound A45] | 100 | 20 | 90 | 80 | 50 | 60 | 30 | 80 |  |  |  |  |  |  |  | 
11 | O=S(=O)([O-])CCC[n+]1ccc(-c2ccnc(Cl)n2)cn1 [Compound A53] | 80 | 70 | 70 | 70 | 80 | 100 | 40 | 80 |  |  |  |  |  |  |  | 
12 | O=S(=O)([O-])CC[n+]1ccc(-c2nccc(C(F)(F)F)n2)cn1 [Compound A23] | 100 | 60 | 70 | 100 | 90 | 80 | 70 | 80 |  |  |  |  |  |  |  | 
13 | COc1nccc(-c2cc[n+](CCS(=O)(=O)[O-])nc2)n1 [Compound A60] | 90 | 60 | 90 | 100 | 70 | 100 | 70 | 100 |  |  |  |  |  |  |  | 
14 | O=c1cc(-c2cc[n+](CCS(=O)(=O)[O-])nc2)nc[nH]1 [Compound A57] | 60 | 10 | 40 | 40 | 60 | 60 | 10 | 80 |  |  |  |  |  |  |  | 
15 | O=C([O-])CC[n+]1ccc(-c2ncc(C3CC3)cn2)cn1 [Compound A51] | 70 | 20 | 60 | 90 | 30 | 70 | 60 | 90 |  |  |  |  |  |  |  | 

Reference: patent US20220125051A1, “PRE-HARVEST DESICCATION METHOD” (SYNGENTA CROP PROTECTION AG, priority 2019, published 2022)
